In series [1] the test system is Mus musculus. Description: Toxicity in po dosed mouse assessed as catalepsy. The series is classed as organism-based. To be noted: in vivo.
The test system of series [2] is Mus musculus. Description: Selectivity ratio of ED50 for po dosed mouse assessed as catalepsy to ED50 for po dosed mouse assessed as reversal of apomorphine-induced climbing activity.
Series [3] addresses D(2) dopamine receptor (Homo sapiens) (UniProt P14416). Description: Antagonist activity at dopamine D2 receptor (unknown origin) at 10 uM.

Sequence of D(2) dopamine receptor (Homo sapiens) (P14416 whole entry): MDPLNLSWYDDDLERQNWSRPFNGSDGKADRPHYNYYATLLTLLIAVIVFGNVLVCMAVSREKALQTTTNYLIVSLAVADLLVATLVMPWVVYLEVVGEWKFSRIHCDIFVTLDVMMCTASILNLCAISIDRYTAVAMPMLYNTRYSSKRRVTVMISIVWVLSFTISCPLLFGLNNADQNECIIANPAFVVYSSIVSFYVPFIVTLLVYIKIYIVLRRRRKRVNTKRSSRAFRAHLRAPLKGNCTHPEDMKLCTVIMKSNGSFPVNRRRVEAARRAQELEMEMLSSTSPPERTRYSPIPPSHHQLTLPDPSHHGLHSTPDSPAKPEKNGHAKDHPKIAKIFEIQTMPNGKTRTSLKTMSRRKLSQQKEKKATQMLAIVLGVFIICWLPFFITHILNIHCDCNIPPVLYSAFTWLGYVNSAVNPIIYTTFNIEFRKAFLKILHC

Take `O=[N+]([O-])c1ccc(S(=O)(=O)N2CCC(CN3CCC(c4noc5cc(F)ccc45)CC3)CC2)cc1`: the ED50 – broadly, the midpoint of the dose-response relation – in series [1] was 43.53 mg/kg. Also, the “Ratio ED50” value in series [2] amounted to 108.8. In addition, the inhibition (as a rule, the relative decrease from the control value, in per cent) in series [3] is 100%.
